System: oral mucositis induced by acute radiation (40 Gy, left buccal cheek pouch)
Assay: Oral mucositis induced by acute radiation in hamsters, mucositis scoring (Example 1, SCI-01)
Assay type: in vivo, Syrian Golden Hamsters
Design: key to peak mean mucositis score: 0 = normal, 5 = severe ulceration
Conditions: for Days <3: animal days with mucositis score below three; for % Days >=3 / Days >=3: animal days with mucositis score of three or more; for Chi Sq v control: days with score >=3
Excerpt: The acute radiation model in hamsters has proven to be an accurate, efficient and cost-effective technique to provide a preliminary evaluation of anti-mucositis compounds. The course of mucositis in this model is well defined and results in peak scores approximately 14-16 Days following radiation. The acute model has little systemic toxicity, resulting in few hamster deaths, thus permitting the use of smaller groups (N=7-8) for initial efficacy studies. It has also been used to study specific mechanistic elements in the pathogenesis of mucositis. Molecules that show efficacy in the acute radiation model may be further evaluated in the more complex models of fractionated radiation, chemotherapy, or concomitant therapy.
In this study, an acute radiation dose of 40 Gy on day 0 was administered. Clinically significant mucositis was observed on days 12 through 28.
Thirty-two (32) Syrian Golden Hamsters were given an acute radiation dose of 40 Gy directed to their left buccal cheek pouch on day 0. Test materials were given by sub-cutaneous injection once daily. Dosing began one day before radiation (day −1) and continued until day 16. Mucositis was evaluated clinically starting on day 6, and continuing on alternate days until day 28.
The grade of mucositis was scored, beginning day 6, and for every second day thereafter, through and including day 28. The effect on mucositis of each drug treatment compared to placebo was assessed according to the following parameters:
The difference in the number of days hamsters in each group have ulcerative (score ≧3) mucositis.
On each evaluation day, the number of animals with a blinded mucositis score of 3 in each drug treatment group was compared to the control group. Differences were compared on a cumulative basis and statistical significance was determined by chi-square analysis. Efficacy, in this analysis, is defined by a significant reduction in the number of days that a group of animals had ulcerations (scores 3) when compared to the control group.
For each evaluation day the scores of the control group were compared to those of the treated groups using non-parametric rank sum analysis. Treatment success was considered as a statistically significant lowering of scores in the treated group on 2 or more days from day 6 to day 28.
Thirty-two Syrian Golden Hamsters were divided into four (4) groups of eight (8) animals each. All animals received a single dose of acute radiation of 40 Gy directed to their left buccal cheek pouch on day 0. This was accomplished by anesthetizing the animals and everting the left buccal pouch, while protecting the rest of the animals with a lead shield. Test materials were given by sub-cutaneous injection once daily as detailed in Table 1. Mucositis was evaluated clinically starting on Day 6, and continuing on alternate days until day 28.
Mucositis was induced using a standardized acute radiation protocol. A single dose of radiation (40 Gy/dose) was administered to all animals on day 0. Radiation was generated with a 160 kilovolt potential (15-ma) source at a focal distance of 30 cm, hardened with a 0.35 mm Cu filtration system. Irradiation targeted the left buccal pouch mucosa at a rate of 3.2 Gy/minute. Prior to irradiation, animals were anesthetized with an intraperitoneal injection of Ketamine (160 mg/kg) and Xylazine (8 mg/kg). The left buccal pouch was everted, fixed and isolated using a lead shield to protect all other parts of the hamster's body.
The mucositis score, weight change and survival were measured throughout the study as described above. For the evaluation of mucositis, the animals were anesthetized with an inhalation anesthetic, and the left pouch everted. Mucositis was scored visually by comparison to a validated photographic scale, ranging from 0 for normal, to 5 for severe ulceration (clinical scoring). In descriptive terms, this scale is defined as follows: […]

SMILES: N[C@H](CCC(=O)N[C@@H](Cc1c[nH]c2ccccc12)C(=O)O)C(=O)O [SCV-07, γ-D-glutamyl-L-tryptophan]
- day of peak mean mucositis score (1 ug/kg from day -1 to 16): 16
- peak mean mucositis score (1 ug/kg from day -1 to 16): 3.8
- improvement in daily mucositis scores relative to saline controls (Mann-Whitney rank sum) (1 ug/kg on days -1 to 16, any day of the study): did not show any statistically significant improvement on any day
- day of peak mean mucositis score (10 ug/kg from day -1 to 16): 16
- peak mean mucositis score (10 ug/kg from day -1 to 16): 3.7
- day of peak mean mucositis score (100 ug/kg from day -1 to 16): 18
- peak mean mucositis score (100 ug/kg from day -1 to 16): 3.4
- Days <3 (1 ug/kg sc Days -1 to 16): 102
- Days <3 (10 ug/kg sc Days -1 to 16): 120
- Days <3 (100 ug/kg sc Days -1 to 16): 124
- % Days >=3 (1 ug/kg sc Days -1 to 16): 46.9%
- Days >=3 (1 ug/kg sc Days -1 to 16): 90
- % Days >=3 (10 ug/kg sc Days -1 to 16): 37.5%
- Days >=3 (10 ug/kg sc Days -1 to 16): 72
- % Days >=3 (100 ug/kg sc Days -1 to 16): 35.4%
- Days >=3 (100 ug/kg sc Days -1 to 16): 68
- Chi Sq v control (1 ug/kg sc Days -1 to 16): 0.0105
- Chi Sq v control (10 ug/kg sc Days -1 to 16): 3.0860
- Chi Sq v control (100 ug/kg sc Days -1 to 16): 4.7420

From patent US7906486B2, “Method of treating or preventing tissue deterioration, injury or damage due to disease of mucosa” (SciClone Pharmaceuticals, Inc., priority 2007, dated 2011)
